Assay results: article PMC12392461, “Beyond Estrogenicity: A Comparative Assessment of Bisphenol A and Its Alternatives in In Vitro Assays Questions Safety of Replacements” (Environmental Science & Technology, 2025)
Where two headings read alike, the source gives them in different places.

How the values were obtained:
[1] = Abiotic CYP (aCYP) oxidation, remaining parent compound (Cparent-Ratio)
Method: The mixtures were adjusted to a final volume of 100 μL with acetonitrile (ACN). The reaction mix was incubated for 15 min at 30 °C and 1000 rpm on a Bioshake iQ orbital shaker from QInstruments (Jena, Germany). Additionally, a mixture without test compounds was prepared as a control. Subsequently, 10 μL of the reaction mixture was transferred into a conical dosing vial and evaporated under a nitrogen flow.
For chemical analysis, 10 μL of the reaction mixture was concentrated under vacuum (CentriVap, Labconco, Kansas City, MO, USA), diluted to 1 mg/L in ACN or ethyl acetate. The chemical analysis of the reaction mixtures was performed using liquid chromatography (LC) and gas chromatography (GC) coupled with various detection techniques, preferably Multiple Reaction Monitoring (MRM). Data acquisition and processing were carried out using the software MassHunter. Quantification was based on external calibrations.
The Cparent-Ratio quantifies the extent of oxidation of the parent compound after the abiotic CYP reaction. It was calculated as the ratio of the parent compound concentration after oxidation (C parent, after oxidation) to its concentration before oxidation (C parent, before oxidation) as shown in eq . […] 8 Cparent‐Ratio=Cparent,after oxidation/Cparent,before oxidation

ERα = details: ref Pelch et al 2019; cited from earlier work
Estrogen Receptor ERα = target: T1, Estrogen Receptor ERα (Homo sapiens, UniProt P03372); assay: cell-based; details: This Study
T1 sequence (P03372 311-547 limits assumed): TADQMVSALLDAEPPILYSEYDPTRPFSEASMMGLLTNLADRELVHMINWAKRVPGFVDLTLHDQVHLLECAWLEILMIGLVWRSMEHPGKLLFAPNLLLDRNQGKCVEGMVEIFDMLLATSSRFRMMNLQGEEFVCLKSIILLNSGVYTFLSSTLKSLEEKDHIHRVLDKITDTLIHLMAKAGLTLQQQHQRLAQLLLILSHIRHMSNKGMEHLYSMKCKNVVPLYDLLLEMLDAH
Source text: All bioassay media components and the ERα-UAS-bla GripTite and PPARγ-UAS-bla cells were obtained from Thermo Fisher Scientific (Waltham, MA, USA). AREc32 reporter gene cells based on MCF7 were provided by C. Roland Wolf (Cancer Research UK); AhR CALUX cells (H4L7.5c2 derived from H4IIe) were provided by Michael Denison (UC Davis, USA); and SH-SY5Y cells were purchased from Sigma-Aldrich.
Cell culture conditions and bioassay protocols including response detection are provided in Text S2.1–2.4 and Table S3. − Cell viability was determined from cell confluency using an IncuCyte S3 Live-Cell Analysis System (Sartorius AG, Essen, Germany) before and after exposure, except for SH-SY5Y cells (live–dead staining with Nuclear Green LcS1 and propidium iodide, Abcam, UK). For metabolic activation experiments, cell viability was assessed using the ToxBLAzer DualScreen Kit (Thermo Fisher Scientific) to capture the remaining toxicity in ERα-UAS-bla GripTite after treatment with the aCYP catalyst (details in Text S2.4).
For ARE, the concentration that triggered an induction ratio of 1.5 (ECIR1.5) was used as the benchmark value, as detailed in Text S2.5. IC10 values also served as a threshold for data analysis in all assays; only concentrations below IC10 were considered when deriving EC10 or ECIR1.5.
The maximum efficacy (Emax%) refers to the maximum of the log–logistic concentration–response curve attained by test chemicals compared to the reference chemical’s maximum and was obtained for both ERα and PPARγ. […]
S2: Cell culture and bioassays
S2.1: Cell Culturing Conditions
All suppliers and sources are given in detail in SI-Excel S3. The bioassay media for the different assays were prepared as follows: Assay medium for ER alpha-UAS-bla GripTite (ERα) and […]
2% charcoal-stripped FBS, and 100 U/mL penicillin-streptomycin. […]
S2.2: Cell Seeding and Incubation. For all bioassays, cell suspensions in the respective assay medium were dispensed into each well of 384-well plates using a MultiFlo Dispenser (Biotek, (now Agilent), Winooski, VT, U.S.). After seeding, the plates were incubated at 37° C and 5% CO₂ for […]. The final cell densities and plate types were as follows: Black poly-D-lysine […]
6500 cells/well, ERα: 5000 cells/well. White 384-well plates with a clear bottom (Product No. […]
S2.3: Chemical Dosing and Assay Analysis Procedures.

Tox21 assays [2] = details: re-evaluated Tox21 data, ref Adamovsky et al 2024, cited from earlier work
Tox21 assays [3] = assay: Re-evaluated Tox21 data (Adamovsky et al.), REPBPA and SRbaseline; details: for REPBPA: Relative Effect Potency; for SRbaseline: Specificity Ratio;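 for all read-outs here: published Tox21 results reanalysed with a revised model predicting baseline toxicity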
Source text: We also reanalyzed the Tox21 data of Adamovsky et al. with the updated baseline toxicity prediction model (Table S2).

[4] = set-up: method as in ref 12 (ECHA); details: ref 12 (ECHA), cited from earlier work
[5] = set-up: method as in ref EFSA; details: in vitro and in vivo data; ref EFSA; cited from earlier work
keratinocytes = test system: keratinocytes; set-up: method as in Son et al.; details: ref Son et al.; cited from earlier work
[6] = TOX21_AR_LUC_MDAKB2_Antagonist_0,5nM_R1881
[7] = TOX21_PPARg_BLA_antagonist_ratio

## O=S(=O)(c1ccc(O)cc1)c1ccccc1O [2, 4BPS]
[1]; Table S9, loss of parent after aCYP oxidation
  % Loss: -4.66%
[1]; Table S9, mean of two replicate experiments
  Cparent-Ratio Mean: 1.05
[1]; Table S9, replicate 1
  Cparent-Ratio Rep.1 %: 108.33%
[1]; Table S9, replicate 1, as fraction
  Cparent-Ratio Rep.1: 1.08
[1]; Table S9, replicate 2
  Cparent-Ratio Rep.2 %: 100.98%
[1]; Table S9, replicate 2, as fraction
  Cparent-Ratio Rep.2: 1.01

## O=S(=O)(c1ccc(O)cc1)c1ccccc1O [24BPS]
ERα
  Efficacy %: 24.30%
Estrogen Receptor ERα
  Efficacy %: 19.00%
Estrogen Receptor ERα; ERα, in M
  EC10: 1.98E-05
Estrogen Receptor ERα; relative estrogenic potency vs BPA
  REPBPA: 1.87E-02

## Cc1cc(C(C)(C)c2ccc(O)c(C)c2)ccc1O [BPC]
Tox21 assays [2]; ATG_PPARg_TRANS_up
  EC10: 1880 nM
Tox21 assays [2]; [6]
  EC10: 850 nM
Tox21 assays [2]; [7]
  EC10: 3090 nM
Tox21 assays [3]; ATG_PPARg_TRANS_up
  REPBPA: 0.85
  SRbaseline: 17.78
Tox21 assays [3]; [6]
  REPBPA: 2.85
  SRbaseline: 39.40
Tox21 assays [3]; [7]
  SRbaseline: 10.83

## CC1(C)C(O)C(C)(C)C1O (centres unmarked) [TMCD, 2,2,4,4-tetramethyl-1,3-cyclobutanediol]
[4]; aqueous solution
  degradation in OECD guideline test 301B: no degradation
[4]
  time reported to remain stable: 22 days
[1]
  parent compound during aCYP oxidation: remained unchanged
[5]
  genotoxicity categorisation: nongenotoxic
keratinocytes
  concentration with statistically significant reduced cell viability: 350 µM
